According to PubChem BioAssay AID248 (DTP/NCI, 2004):
“And” between values parts separate entries of the source, which are not always exact repeats. Equal entries are not always repeated. Toxic doses and inconclusive results are not listed. No stated cut-off is given here; in the data, active means T/C of 150% or more; inactive means T/C below 125%.

System: L1210 leukemia ip in BDF1 mice, survival T/C
Assay: NCI In Vivo Anticancer Drug Screen. Data for tumor model L1210 Leukemia (intraperitoneal) in B6D2F1 (BDF1) mice
Settings: endpoint: mean survival time, higher = longer survival
How it was run: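 Transplanted-tumor mice were given test agent; controls received vehicle only. Survival readings from the two groups were divided (treated over control).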

[1] = dose: 100.0 mg/kg/injection, schedule: Q04DX003 (ip), vehicle: saline with Tween-80
[2] = dose: 200.0 mg/kg/injection, schedule: Q04DX003 (ip), vehicle: saline with Tween-80
[3] = dose: 400.0 mg/kg/injection, schedule: Q04DX003 (ip), vehicle: saline with Tween-80
[4] = dose: 100.0 mg/kg/injection, schedule: Q01DX009 (ip), vehicle: Klucel (hydroxypropylcellulose) (HPC)
[5] = dose: 200.0 mg/kg/injection, schedule: Q01DX009 (ip), vehicle: Klucel (hydroxypropylcellulose) (HPC)
[6] = dose: 100.0 mg/kg/injection, schedule: Q04DX003 (ip), vehicle: Klucel (hydroxypropylcellulose) (HPC)
[7] = dose: 200.0 mg/kg/injection, schedule: Q04DX003 (ip), vehicle: Klucel (hydroxypropylcellulose) (HPC)
[8] = dose: 400.0 mg/kg/injection, schedule: Q04DX003 (ip), vehicle: Klucel (hydroxypropylcellulose) (HPC)
[9] = dose: 100.0 mg/kg/injection, schedule: Q01DX009 (ip), vehicle: saline with Tween-80
[10] = dose: 200.0 mg/kg/injection, schedule: Q01DX009 (ip), vehicle: saline with Tween-80
[11] = dose: 400.0 mg/kg/injection, schedule: Q01DX009 (ip), vehicle: saline with Tween-80
[12] = dose: 100.0 mg/kg/injection, schedule: Q01DX001 (ip), vehicle: saline
[13] = dose: 200.0 mg/kg/injection, schedule: Q01DX001 (ip), vehicle: saline
[14] = dose: 25.0 mg/kg/injection, schedule: Q01DX009 (ip), vehicle: Klucel (hydroxypropylcellulose) (HPC)
[15] = dose: 50.0 mg/kg/injection, schedule: Q01DX009 (ip), vehicle: Klucel (hydroxypropylcellulose) (HPC)
[16] = dose: 100.0 mg/kg/injection, schedule: Q01DX009 (ip), vehicle: saline
[17] = dose: 200.0 mg/kg/injection, schedule: Q01DX009 (ip), vehicle: saline
[18] = dose: 100.0 mg/kg/injection, schedule: Q04DX002 (ip), vehicle: saline with Tween-80
[19] = dose: 200.0 mg/kg/injection, schedule: Q04DX002 (ip), vehicle: saline with Tween-80
[20] = dose: 400.0 mg/kg/injection, schedule: Q04DX002 (ip), vehicle: saline with Tween-80
[21] = dose: 75.0 mg/kg/injection, schedule: Q01DX001 (ip), vehicle: saline

Measured: T/C

O=C(CC(O)(C(F)(F)F)C(F)(F)F)c1ccc(F)cc1
inactive: [1] 94 % of control | [2] 92 % of control | [3] 103 % of control

CCc1c(C#N)oc2ccc(O)cc12
inactive: [4] 96 % of control | dose: 100.0 mg/kg/injection, schedule: Q04DX002 (ip), vehicle: Klucel (hydroxypropylcellulose) (HPC) 95 % of control | [5] 91 % of control | dose: 200.0 mg/kg/injection, schedule: Q04DX002 (ip), vehicle: Klucel (hydroxypropylcellulose) (HPC) 101 % of control | dose: 400.0 mg/kg/injection, schedule: Q04DX002 (ip), vehicle: Klucel (hydroxypropylcellulose) (HPC) 95 % of control

CN(Cc1cc(Br)cc(Br)c1O)C1CC2CCC1(C)C2(C)C (configuration not stated)
inactive: [6] 88 % of control | [7] 95 % of control | [8] 88 % of control

Cc1nc(OCc2ccccc2)c(C(=O)OCc2ccccc2)nc1C
inactive: [9] 103 % of control | [1] 101 % of control | [10] 97 % of control | [2] 102 % of control | [11] 101 % of control | [3] 98 % of control

CC(=O)CCN1C(=O)c2ccccc2C1=O
inactive: [4] 100 % of control | [6] 101 % of control | [5] 104 % of control | [7] 90 % of control | dose: 400.0 mg/kg/injection, schedule: Q01DX009 (ip), vehicle: Klucel (hydroxypropylcellulose) (HPC) 97 % of control | [8] 96 % of control

CCN(CC)C(C)(O)CN (configuration not stated)
inactive: [12] 98 % of control | [13] 103 % of control

CCCC(=O)OCc1cnc(SC)nc1N
inactive: [12] 100 % of control | [13] 97 % of control | dose: 400.0 mg/kg/injection, schedule: Q01DX001 (ip), vehicle: saline 93 % of control

Cc1cc(C(=O)C(C#N)=Nc2ccc(N(C)C)cc2)c(CN2C(=O)c3ccccc3C2=O)c(=O)n1C
inactive: dose: 100.0 mg/kg/injection, schedule: Q01DX001 (ip), vehicle: water 92 % of control | dose: 200.0 mg/kg/injection, schedule: Q01DX001 (ip), vehicle: water 94 % of control | dose: 400.0 mg/kg/injection, schedule: Q01DX001 (ip), vehicle: water 94 % of control

COCCCNP(=O)(OC)OC
inactive: dose: 100.0 mg/kg/injection, schedule: Q01DX001 (ip), vehicle: acetone 98 % of control | dose: 100.0 mg/kg/injection, schedule: Q04DX003 (ip), vehicle: acetone 98 % of control | dose: 200.0 mg/kg/injection, schedule: Q01DX001 (ip), vehicle: acetone 112 % of control | dose: 200.0 mg/kg/injection, schedule: Q04DX003 (ip), vehicle: acetone 100 % of control | dose: 400.0 mg/kg/injection, schedule: Q01DX001 (ip), vehicle: acetone 105 % of control | dose: 400.0 mg/kg/injection, schedule: Q04DX003 (ip), vehicle: acetone 95 % of control

Nc1nc(N)nc(CCP(CCc2nc(N)nc(N)n2)CCc2nc(N)nc(N)n2)n1
inactive: [14] 110 % of control | [15] 108 % of control | [4] 104 % of control | [6] 110 % of control and 113 % of control | [7] 98 % of control and 100 % of control | [8] 101 % of control

COc1ccc(CC2=NCCN2)cc1
inactive: dose: 25.0 mg/kg/injection, schedule: Q04DX003 (ip), vehicle: saline with Tween-80 91 % of control | dose: 50.0 mg/kg/injection, schedule: Q04DX003 (ip), vehicle: saline with Tween-80 93 % of control | [1] 101 % of control and 89 % of control

CCCCOC(=O)c1ccc(OC(=O)Nc2cc(OC)ccc2OC)cc1
inactive: [1] 95 % of control | [2] 91 % of control | [3] 90 % of control

O=C(O)CCNCCO
inactive: [16] 98 % of control | [17] 98 % of control

S=P(NCCCCCCCCNP(=S)(N1CC1)N1CC1)(N1CC1)N1CC1
inactive: dose: 100.0 mg/kg/injection, schedule: Q01DX001 (ip), vehicle: carboxymethylcellulose (CMC) 102 % of control | dose: 200.0 mg/kg/injection, schedule: Q01DX001 (ip), vehicle: carboxymethylcellulose (CMC) 119 % of control | dose: 400.0 mg/kg/injection, schedule: Q01DX001 (ip), vehicle: carboxymethylcellulose (CMC) 107 % of control

Cc1cccc(C2NC(=O)N3C(c4cccc(C)c4)NC(=O)N23)c1 (configuration not stated)
inactive: dose: 100.0 mg/kg/injection, schedule: Q01DX009 (ip), vehicle: gum acacia 89 % of control | dose: 100.0 mg/kg/injection, schedule: Q04DX003 (ip), vehicle: gum acacia 88 % of control | dose: 200.0 mg/kg/injection, schedule: Q01DX009 (ip), vehicle: gum acacia 88 % of control | dose: 200.0 mg/kg/injection, schedule: Q04DX003 (ip), vehicle: gum acacia 93 % of control | dose: 400.0 mg/kg/injection, schedule: Q04DX003 (ip), vehicle: gum acacia 90 % of control

O=C(NC(=S)Nc1cc(Cl)ccc1Cl)c1ccc(Cl)cc1Cl
inactive: dose: 100.0 mg/kg/injection, schedule: Q01DX001 (ip), vehicle: saline with Tween-80 92 % of control | [9] 94 % of control and 97 % of control | [18] 87 % of control and 90 % of control | [1] 97 % of control | dose: 200.0 mg/kg/injection, schedule: Q01DX001 (ip), vehicle: saline with Tween-80 94 % of control | [10] 93 % of control and 97 % of control | [19] 97 % of control and 87 % of control | [2] 92 % of control | dose: 400.0 mg/kg/injection, schedule: Q01DX001 (ip), vehicle: saline with Tween-80 94 % of control | [11] 103 % of control and 105 % of control | [20] 93 % of control and 101 % of control | [3] 95 % of control

O=C(NCCO)C(=O)NCCO
inactive: dose: 100.0 mg/kg/injection, schedule: Q04DX002 (ip), vehicle: saline 115 % of control | dose: 200.0 mg/kg/injection, schedule: Q04DX002 (ip), vehicle: saline 110 % of control | dose: 400.0 mg/kg/injection, schedule: Q04DX002 (ip), vehicle: saline 96 % of control

CCCC[n+]1cccc(C(=O)c2ccccc2)c1
inactive: [21] 101 % of control

CCN(CC)CCN(C)CC(=O)Nc1ccccc1C
inactive: [21] 100 % of control | dose: 150.0 mg/kg/injection, schedule: Q01DX001 (ip), vehicle: saline 103 % of control | dose: 300.0 mg/kg/injection, schedule: Q01DX001 (ip), vehicle: saline 101 % of control

CC(C)=CN1CCOCC1
inactive: [14] 94 % of control | [15] 92 % of control | [4] 97 % of control and 106 % of control | [6] 100 % of control | [7] 100 % of control | [8] 102 % of control

CN1CCN(P(c2ccccc2)N2CCN(C)CC2)CC1
inactive: [18] 107 % of control | [19] 103 % of control | [20] 95 % of control

C=CCNC(C)=O
inactive: [16] 97 % of control | dose: 100.0 mg/kg/injection, schedule: Q04DX003 (ip), vehicle: saline 98 % of control | [17] 97 % of control | dose: 200.0 mg/kg/injection, schedule: Q04DX003 (ip), vehicle: saline 97 % of control | dose: 400.0 mg/kg/injection, schedule: Q01DX009 (ip), vehicle: saline 97 % of control
